Experimental data as given in ChEMBL document CHEMBL4715750, “Synthesis and in vitro, ex-vivo and in vivo activity of hybrid compounds linking a potent ROS and RNS scavenger activity with diverse substrates addressed to pass across the blood-brain barrier” (Eur J Med Chem, 2016).
Calls of active or inactive are those of the source. No cut-off for these calls is given here.

Assays:
[1] = Cytotoxicity against human SH-SY5Y cells assessed as cell viability at 12.5 uM measured after 2 hrs by MTT assay relative to control; type: cell-based; settings: read-out: Activity
[2] = Cytotoxicity against human SH-SY5Y cells assessed as cell viability at 0.8 uM measured after 24 hrs by MTT assay relative to control; type: cell-based; settings: read-out: Activity
[3] = Cytotoxicity against human SH-SY5Y cells assessed as cell viability at 6.3 uM measured after 2 hrs by MTT assay relative to control; type: cell-based; settings: read-out: Activity
[4] = Cytotoxicity against human SH-SY5Y cells assessed as cell viability at 12.5 uM measured after 24 hrs by MTT assay relative to control; type: cell-based; settings: read-out: Activity
[5] = Cytotoxicity against human SH-SY5Y cells assessed as cell viability at 50 uM measured after 24 hrs by MTT assay relative to control; type: cell-based; settings: read-out: Activity
[6] = Cytotoxicity against human SH-SY5Y cells assessed as cell viability at 0.8 uM measured after 2 hrs by MTT assay relative to control; type: cell-based; settings: read-out: Activity
[7] = Cytotoxicity against human SH-SY5Y cells assessed as cell viability at 1.6 uM measured after 2 hrs by MTT assay relative to control; type: cell-based; settings: read-out: Activity
SH-SY5Y [8] = experiment: Antioxidant activity in human SH-SY5Y cells assessed as inhibition of H2O2-induced DCFH oxidation measured after 1 hr by DCFH-DA dye based fluorescence assay; type: functional, cell-based
[9] = Drug concentration in Sprague-Dawley rat plasma at 0.2 mmol/Kg, ip measured after 1 hr by HPLC based fluorimetric analysis; type: ADME, organism-based
[10] = Cytotoxicity against human SH-SY5Y cells assessed as cell viability at 25 uM measured after 2 hrs by MTT assay relative to control; type: cell-based; settings: read-out: Activity
[11] = Cytotoxicity against human SH-SY5Y cells assessed as cell viability at 3.1 uM measured after 24 hrs by MTT assay relative to control; type: cell-based; settings: read-out: Activity
[12] = Cytotoxicity against human SH-SY5Y cells assessed as cell viability at 50 uM measured after 2 hrs by MTT assay relative to control; type: cell-based; settings: read-out: Activity
[13] = Drug concentration in Sprague-Dawley rat brain at 0.2 mmol/Kg, ip measured after 1 hr by HPLC based fluorimetric analysis; type: ADME, organism-based; settings: in vivo
[14] = Cytotoxicity against human SH-SY5Y cells assessed as cell viability at 100 uM measured after 2 hrs by MTT assay relative to control; type: cell-based; settings: read-out: Activity
[15] = Cytotoxicity against human SH-SY5Y cells assessed as cell viability at 1.6 uM measured after 24 hrs by MTT assay relative to control; type: cell-based; settings: read-out: Activity
[16] = Permeability of the compound at pH 7.4 by PAMPA-BBB assay; type: ADME; settings: read-out: permeability
[17] = Retention time in Sprague-Dawley rat brain by HPLC based fluorimetric analysis; type: ADME, tissue-based
[18] = Cytotoxicity against human SH-SY5Y cells assessed as cell viability at 100 uM measured after 24 hrs by MTT assay relative to control; type: cell-based; settings: read-out: Activity
[19] = Cytotoxicity against human SH-SY5Y cells assessed as cell viability at 6.3 uM measured after 24 hrs by MTT assay relative to control; type: cell-based; settings: read-out: Activity
[20] = Cytotoxicity against human SH-SY5Y cells assessed as cell viability at 25 uM measured after 24 hrs by MTT assay relative to control; type: cell-based; settings: read-out: Activity
[21] = Cytotoxicity against human SH-SY5Y cells assessed as cell viability at 3.1 uM measured after 2 hrs by MTT assay relative to control; type: cell-based; settings: read-out: Activity
[22] = Antioxidant activity assessed as DPPH radical scavenging activity incubated for 60 mins in absence of light; type: functional
SH-SY5Y [23] = experiment: Cytoprotective activity against DMSO-induced toxicity in human SH-SY5Y cells; type: functional, cell-based
[24] = Retention time in Sprague-Dawley rat plasma by HPLC based fluorimetric analysis; type: ADME, cell-free

| Structure (SMILES) | IC50 (SH-SY5Y [8]) [µM] | concentration at 1 h [9] [nM] | Ct [13] [nmol/g] | viability at 2 h, 12.5 µM [1] [%] | viability at 24 h, 0.8 µM [2] [%] | viability at 2 h, 6.3 µM [3] [%] | viability at 24 h, 12.5 µM [4] [%] | viability at 24 h, 50 µM [5] [%] | viability at 2 h, 0.8 µM [6] [%] | viability at 2 h, 1.6 µM [7] [%] | Activity (SH-SY5Y [8]) | viability at 2 h, 25 µM [10] [%] | viability at 24 h, 3.1 µM [11] [%] | viability at 2 h, 50 µM [12] [%] | viability at 2 h, 100 µM [14] [%] | viability at 24 h, 1.6 µM [15] [%] | viability at 24 h, 100 µM [18] [%] | viability at 24 h, 6.3 µM [19] [%] | viability at 24 h, 25 µM [20] [%] | viability at 2 h, 3.1 µM [21] [%] | further results |
| --- | --- | --- | --- | --- | --- | --- | --- | --- | --- | --- | --- | --- | --- | --- | --- | --- | --- | --- | --- | --- | --- |
| COc1cc2c(cc1O)CCC(C)(CCNC(C)=O)O2 (configuration not stated) | 50.3 | 3000 | 2.3 | 84.8 | 89 | 79.4 | 83.5 | 66.5 | 91.3 | 100 | Dose-dependent effect | 89.2 | 90.7 | 81.2 | 66.6 | 78.7 | 57.9 | 87.8 | 76.2 | 82.3 | Papp [16]: 0.52 ×10⁻⁶ cm/s; Retention_time [17]: 4 min; IC50 [22]: 14.3 µM |
| COc1cc2c(cc1O)CCC(C)(CC(=O)N[C@@H](Cc1ccccc1)C(=O)O)O2 (some centres not stated) | 44.5 | 900 | 0 | 100 | 100 | 100 | 82.3 | 89.5 | 99 | 100 | Dose-dependent effect | 100 | 93 | 100 | 72.2 | 100 | 59.1 | 87.5 | 81.1 | 100 | Papp [16]: 0.49 ×10⁻⁶ cm/s; Activity (SH-SY5Y [23]): Active; IC50 [22]: 14.9 µM |
| COc1cc2c(cc1O)CCC(C)(CC(N)C(=O)O)O2 (configuration not stated) | > 200 | 52300 | 15.8 | 100 | 82.7 | 100 | 100 | 85.7 | 100 | 100 | Dose-dependent effect | 100 | 100 | 100 | 87.8 | 100 | 60.1 | 100 | 88.5 | 100 | Papp [16]: 0.04 ×10⁻⁶ cm/s; Retention_time [17]: 7 min; Activity (SH-SY5Y [23]): Active; IC50 [22]: 14.1 µM |

The next molecules have a lower IC50 (SH-SY5Y [8]) than those just listed; values first:

| IC50 (SH-SY5Y [8]) [µM] | concentration at 1 h [9] [nM] | Ct [13] [nmol/g] | Structure (SMILES) | viability at 2 h, 12.5 µM [1] [%] | viability at 24 h, 0.8 µM [2] [%] | viability at 2 h, 6.3 µM [3] [%] | viability at 24 h, 12.5 µM [4] [%] | viability at 24 h, 50 µM [5] [%] | viability at 2 h, 0.8 µM [6] [%] | viability at 2 h, 1.6 µM [7] [%] | Activity (SH-SY5Y [8]) | viability at 2 h, 25 µM [10] [%] | viability at 24 h, 3.1 µM [11] [%] | viability at 2 h, 50 µM [12] [%] | viability at 2 h, 100 µM [14] [%] | viability at 24 h, 1.6 µM [15] [%] | viability at 24 h, 100 µM [18] [%] | viability at 24 h, 6.3 µM [19] [%] | viability at 24 h, 25 µM [20] [%] | viability at 2 h, 3.1 µM [21] [%] | further results |
| --- | --- | --- | --- | --- | --- | --- | --- | --- | --- | --- | --- | --- | --- | --- | --- | --- | --- | --- | --- | --- | --- |
| 35.6 | 26000 | 3.1 | COc1cc2c(cc1O)CCC(C)(CCNC(=O)C[C@H]1OC(O)[C@H](O)[C@@H](O)[C@@H]1O)O2 (some centres not stated) | 100 | 96.1 | 100 | 90.6 | 86.6 | 88.9 | 95.3 | Dose-dependent effect | 100 | 88.1 | 99.6 | 77.6 | 96.7 | 56.6 | 87.2 | 87.9 | 93.3 | Retention_time [17]: 2 min; Activity (SH-SY5Y [23]): Active; IC50 [22]: 13.1 µM |
| 21.7 | 2400 | 4 | COc1cc2c(cc1O)CCC(C)(C)O2 | 91.5 | 91.1 | 92.2 | 100 | 95.2 | 98.5 | 94.1 | Dose-dependent effect | 90.6 | 99.4 | 86.8 | 66.9 | 93.9 | 96.1 | 98 | 93.2 | 85.6 | Retention_time [24]: 8 min; Papp [16]: 0.25 ×10⁻⁶ cm/s; Retention_time [17]: 8 min; IC50 [22]: 14.1 µM |
